Experiments:
[1] = tested on: Therminator IX DNA polymerase; assay: Polymerase extension reaction with 3′-O-modified reversible terminators, MALDI-TOF MS readout; type: biochemical; conditions: extension reactions incl. 1:1 mixtures of two terminators, MALDI-TOF MS (FIGS. 23A-28C)
Procedure: The reaction was conducted in an ABI GeneAmp PCR System 9700 with initial incubation at 65° C. for 30 second, followed by 38 cycles of 65° C./30 sec, 45° C./30 sec, 65° C./30 sec. Multiple reactions were carried out and an aliquot of the reaction mixture was desalted using a C18 ZipTip column (Millipore, MA) and analyzed by MALDI-TOF MS (ABI Voyager DE). Polymerase extension reaction using 3'-O-SS-Rox-dATP for 5, 10, and 30 cycles. […] The reactions were conducted in an ABI GeneAmp PCR System 9700 with initial incubation at 65° C. for 30 second, followed by 5, 10, or 30 cycles of 65° C./30 sec, 45° C./30 sec, 65° C./30 sec. The reaction mixtures were desalted using Oligo Clean & ConcentratorTM (ZYMO Research) and analyzed by MALDI-TOF MS (ABI Voyager DE) and the results are shown in FIGS. 23A-23B. DNA template: [NT] ID NO:6). […] The reaction mixtures were desalted using Oligo Clean & ConcentratorTM (ZYMO Research) and analyzed by MALDI-TOF MS (ABI Voyager DE) the result is shown in FIG. 24. […] The reaction mixtures were desalted using Oligo Clean & ConcentratorTM (ZYMO Research) and analyzed by MALDI-TOF MS (ABI Voyager DE) the result is shown in FIGS. 25A-25C. […] The reaction mixtures were desalted using Oligo Clean & ConcentratorTM (ZYMO Research) and analyzed by MALDI-TOF MS (ABI Voyager DE) the result is shown in FIGS. 28A-28C. […]

DNA polymerase = tested on: DNA polymerase
From the text: FIGS. 23A-23B. MALDI-TOF mass spectra of DNA extension products from polymerase reactions using 3′-O-Rox-SS-dATP for 5, 10, and 30 cycles.
FIGS. 25A-25C. MALDI-TOF mass spectrum of DNA extension products from polymerase reactions using a mixture of 3′-O-tButyl-SS-dATP and 3′-O-Rox-SS-dATP at a 1:1 ratio. […] FIG. 25B: 3′-O-tButyl-SS-dATP (M.W. 625). FIG. 25C: 3′-O-Rox-SS-dATP (M.W. 1157).
FIG. 26. MALDI-TOF mass spectrum of a DNA extension product from polymerase reaction using 3′-O-TCO-SS-dTTP.
FIGS. 27A-27B. MALDI-TOF mass spectrum of a DNA extension product from polymerase reaction using 3′-O-Biotin-dCTP.
FIGS. 28A-28C. MALDI-TOF mass spectrum of DNA extension products from polymerase reaction using with a mixture of 3′-O-Rox-SS-dATP and 3′-O-Rox-PEG4-SS-dATP at a 1:1 ratio.

## CC(C)(C)SSCO[C@H]1C[C@H](n2cnc3c(N)ncnc32)O[C@@H]1COP(=O)(O)OP(=O)(O)OP(=O)(O)O [3′-O-tButyl-SS-dATP, 3′-O-t-Butyldithiomethyl(SS)-dATP]
[1]
  incorporation efficiency relative to another nucleotide analogue: much higher efficiency than 3′-O-Rox-SS-dATP
DNA polymerase; after 5 cycles of extension
  extension: completed
DNA polymerase; mixture at a 1:1 ratio
  efficiency of incorporation by polymerase versus 3′-O-Rox-SS-dATP: much higher efficiency
DNA polymerase; mixture at a 1:1 ratio, after 5 cycles
  height of the extension product peak versus that with 3′-O-Rox-SS-dATP: more than twice

— US12337009B2, “Nucleotide derivatives and methods of use thereof” (The Trustees of Columbia University in the City of New York, priority 2016, dated 2025)
